This is an account of results in ChEMBL document CHEMBL4308897, “Antileishmanial activity and cytotoxicity of ent-beyerene diterpenoids” (Bioorg Med Chem, 2019).

Usually EC50 stands for the concentration giving half of the maximal effect. Lower therefore signals higher potency in that assay.

The nature of data set [1]: Selectivity index, ratio of LC50 for human U937 cells to EC50 for Leishmania (Viannia) braziliensis HMOM/COL/88/UA301-EGFP intracellular amastigotes infected in human U937 cells. The data set is classed as toxicity, cell-based. As to conditions: read-out: Selectivity Index.
Data set [2] relates to Leishmania braziliensis. Put plainly: Antileishmanial activity against Leishmania (Viannia) braziliensis HMOM/COL/88/UA301-EGFP intracellular amastigotes infected in human U937 cells after 72 hrs by flow cytometric analysis. The data set is classed as functional, organism-based. The settings on record: HMOM/COL/88/UA301, U-937, 72 h.
Data set [3] is described as follows: Cytotoxicity against human U937 cells after 72 hrs by MTT assay. As to conditions: read-out: LC50. Format: cell-based, U-937. (Tetrazolium assays rely on reduction of a dye to a coloured formazan, in cell work by metabolically active cells.)
The subject of data set [4] is Leishmania braziliensis. Put plainly: Antileishmanial activity against Leishmania (Viannia) braziliensis HMOM/COL/88/UA301-EGFP infected in golden hamster assessed as cure rate at 200 ug administered intralesionally twice per week for 4 weeks measured 3 months post last dose relative to control. The data set is classed as functional, organism-based.
In data set [5] the test system is Syrian golden hamster. Put plainly: Antiinflammatory activity in golden hamster infected with Leishmania (Viannia) braziliensis HMOM/COL/88/UA301-EGFP assessed as migration of plasmocytes in skin at 200 ug administered intralesionally twice per week for 4 weeks measured 3 months post last dose by histopathological analysis. The settings on record: Mesocricetus auratus. Format: functional, organism-based.

In data set [6] the test system is Syrian golden hamster. Put plainly: Antiinflammatory activity in golden hamster infected with Leishmania (Viannia) braziliensis HMOM/COL/88/UA301-EGFP assessed as migration of macrophages in skin at 200 ug administered intralesionally twice per week for 4 weeks measured 3 months post last dose by histopathological analysis. Format: functional, organism-based. As to conditions: Mesocricetus auratus.

Data set [7] relates to Syrian golden hamster. Put plainly: Antiinflammatory activity in golden hamster infected with Leishmania (Viannia) braziliensis HMOM/COL/88/UA301-EGFP assessed as migration of lymphocytes in skin at 200 ug administered intralesionally twice per week for 4 weeks measured 3 months post last dose by histopathological analysis. Format: functional, organism-based. The settings on record: Mesocricetus auratus.

Data set [8] deals with Syrian golden hamster. Put plainly: Antiinflammatory activity in golden hamster infected with Leishmania (Viannia) braziliensis HMOM/COL/88/UA301-EGFP assessed as re-epithelialization in skin at 200 ug administered intralesionally twice per week for 4 weeks measured 3 months post last dose by histopathological analysis. The data set is classed as functional, organism-based. As to conditions: Mesocricetus auratus.

Data set [9] relates to Leishmania braziliensis. Put plainly: Antileishmanial activity against Leishmania (Viannia) braziliensis HMOM/COL/88/UA301-EGFP infected in golden hamster assessed as clinical improvement at 200 ug administered intralesionally twice per week for 4 weeks measured 3 months post last dose relative to control. The data set is classed as functional, organism-based.
The subject of data set [10] is Leishmania braziliensis. Put plainly: Antileishmanial activity against Leishmania (Viannia) braziliensis HMOM/COL/88/UA301-EGFP infected in golden hamster assessed as relapse at 200 ug administered intralesionally twice per week for 4 weeks measured 3 months post last dose relative to control. Format: functional, organism-based.
The test system of data set [11] is Leishmania braziliensis. Put plainly: Antileishmanial activity against Leishmania (Viannia) braziliensis HMOM/COL/88/UA301-EGFP infected in golden hamster assessed as clinical failure at 200 ug administered intralesionally twice per week for 4 weeks measured 3 months post last dose relative to control. The data set is classed as functional, organism-based.

Active and inactive are the calls of the source. The rule behind the calls is not given here.

As for `CCOC(=O)[C@]1(C)CCC[C@@]2(C)[C@@H]3CC[C@@]4(C)C[C@]3(CC[C@@H]21)C[C@H]4O`, in [1], the selectivity ratio is 1.4. A half-maximal response in the data set with Leishmania braziliensis [2] (EC50) required 13.6 µM. Further, the CC50 at 72 h in data set [3] is 28.8 µM.
For `CCOC(=O)[C@]1(C)CCC[C@@]2(C)[C@@H]3CC[C@@]4(C)C[C@]3(CC[C@@H]21)C/C4=N/O`, in that order: 1.8, 8.8 µM and 15.7 µM.
With `C[C@@H]1[C@H](O)[C@@H](C)/C=C/C=C/C=C/C=C/C=C/C=C/C=C/[C@H](O[C@@H]2O[C@H](C)[C@@H](O)[C@H](N)[C@@H]2O)C[C@@H]2O[C@](O)(C[C@@H](O)C[C@@H](O)[C@H](O)CC[C@@H](O)C[C@@H](O)CC(=O)O[C@H]1C)C[C@H](O)[C@H]2C(=O)O` [AMPHOTERICIN B], in data set [1], the selectivity ratio was determined as 71.8. Further, in the data set with Leishmania braziliensis [2], the concentration for a half-maximal effect (EC50) was 0.8 µM. In addition, in data set [3], the CC50 at 72 h is 54.4 µM.
As to `C[C@@]12CC[C@@H]3[C@@](CC[C@H]4[C@@]3(C)CCC[C@@]4(C)C(=O)O)(CC1=O)C2` [ISOSTEVIOL], the selectivity ratio in data set [1] was greater than 3.3. This compound also gave an EC50 in the data set with Leishmania braziliensis [2] greater than 20 µM. In data set [3], the CC50 at 72 h amounted to 66.9 µM.
With `CCOC(=O)[C@]1(C)CCC[C@@]2(C)[C@@H]3CC=C(C)C[C@@]3(CC#N)CC[C@@H]21`, the selectivity ratio in data set [1] was determined as 0.6. Besides, a half-maximal response in the data set on Leishmania braziliensis [2] (EC50) required 14.1 µM. Moreover, the CC50 at 72 h in [3] came out at 9.1 µM.
Consider MEGLUMINE ANTIMONATE, for which the Activity with Leishmania braziliensis [4] came to 66.7%; in the data set on Leishmania braziliensis [9], 16.7%; in the data set on Leishmania braziliensis [10] it was 16.7%; in the data set with Leishmania braziliensis [11], 0%. Besides, the result in the data set with Syrian golden hamster [5], with Syrian golden hamster [6], in the data set with Syrian golden hamster [7] and with Syrian golden hamster [8] was Active.
Consider `C[C@]12CC[C@H]3[C@]4(C)CCC[C@@](C)(C(=O)O)[C@H]4CC[C@@]3(C1)[C@H]1O[C@H]12`, for which the selectivity ratio in data set [1] was found to be 1.5. In the data set with Leishmania braziliensis [2], this compound came in with a 50% effective concentration (EC50) of 43.3 µM. For the same compound, the CC50 at 72 h in [3] was 64.8 µM.
